Experimental data from PMC1948018 (Retrovirology, 2007).

Experiments:
[1] = tested on: peripheral blood lymphocytes (PBLs); experiment: Cell viability (ATPLite) in PBLs; type: cell-based, human; settings: average of days 4, 8, 12, 16
Experimental: (§1) Human monocyte derived macrophages (MDMs) and peripheral blood lymphocytes (PBLs) cells were isolated from 350 ml of peripheral blood from healthy, HIV negative donors. Peripheral blood mononuclear cells (PBMCs) were isolated as previously described. Briefly, PBMCs were separated by centrifugation in lymphocyte separation medium (ICN Biomedicals, Solon, Ohio). The separated PBMCs were placed on gelatin and fibronectin-coated flasks in order to separate monocytes from mononuclear cells. Adherent monocytes were lifted with EDTA, washed and plated at a density of 1 × 10^6 per well in 48-well trays for infectivity and cytotoxicity studies. Monocytes were differentiated for 5 days in DMEM with 10% FCS, 10% human serum and 1% penicillin/streptomycin in order to generate monocyte-derived macrophages prior to HIV infections and drug treatment. PBLs were treated with 5 μg/ml of phytohaemagglutinin (PHA) for 72 hours prior to HIV infection and drug treatment. PHA-treated PBLs were plated at a density of 1 × 10^6 per well in 48-well trays and maintained in RPMI 1640 with 10% FCS, 1% Penicillin/Streptomycin and 10 units/ml of recombinant IL-2. Viral infection was performed in MDMs and PBLs by adding 10,000 RT units of HIV-1p256 stock per 1 × 10^6 cells. During long term studies in primary cells, supernatants were collected at 4, 8, 12 and 16 days post-infection, frozen at -80°C until analyzed and media was refreshed.
The impact of the P-TEFb inhibitors on cell viability was measured by ATPlite (Perkin Elmer). These cytotoxicity studies were performed as recommended by manufacturer utilizing a substrate solution that emits light in a manner proportional to the ATP present in each sample. Cells were plated in a 48-well format. Cells were treated with serial dilutions of the P-TEFb inhibitors and maintained for the indicated period of time. Mammalian cell lysis buffer was added to lyse the cells, followed by addition of the substrate solution. The amount of light produced in each well was measured in a TopCountR Microplate Scintillation and Luminescence Counter (Packard Instruments). […]

HIV-1p256 [2] = experiment: microbe, parasite or virus in culture; type: cell-based; settings: Human immunodeficiency virus 1, HeLa37, 40 h, read-out: IC50 of inhibition of HIV in HeLa 37 cells
Experimental: Short-term, single hit infectivity studies were performed as previously described. HeLa37 cells were plated in a 48-well tray and triplicate wells were infected with a dual-tropic HIV-1p256 and serial dilutions of P-TEFb inhibitor for 40 hours. The cells were fixed with 75% acetone/25% H2O and immunostained for HIV-1 antigens using human anti-HIV serum (a gift from Dr. Jack Stapleton, Univ. of Iowa) and HRP-conjugated goat anti-human IgG followed by staining with 3-amino-9-ethylcarbazole (AEC). The HIV-1 antigen-positive cells were counted. Experiments were repeated at least three times with each drug concentration in triplicate.

large form of P-TEFb [3] = target: T1, large form of P-TEFb (Homo sapiens, UniProt P50750); experiment: Differential salt extraction, loss of large form of P-TEFb in Jurkat cells; type: cell-based; settings: 1 hour treatment, increasing concentrations
T1 sequence (P50750 whole entry): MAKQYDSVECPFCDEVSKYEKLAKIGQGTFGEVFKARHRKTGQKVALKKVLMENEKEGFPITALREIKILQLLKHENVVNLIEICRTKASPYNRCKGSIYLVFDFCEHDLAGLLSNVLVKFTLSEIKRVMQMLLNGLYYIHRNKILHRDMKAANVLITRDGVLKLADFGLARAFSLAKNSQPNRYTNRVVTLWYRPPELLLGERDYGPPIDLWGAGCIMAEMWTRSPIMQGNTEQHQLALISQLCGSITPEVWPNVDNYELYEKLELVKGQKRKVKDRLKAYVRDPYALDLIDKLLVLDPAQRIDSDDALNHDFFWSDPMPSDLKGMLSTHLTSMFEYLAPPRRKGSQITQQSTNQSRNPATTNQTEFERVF
T1 sequence (O60563 whole entry, further chain): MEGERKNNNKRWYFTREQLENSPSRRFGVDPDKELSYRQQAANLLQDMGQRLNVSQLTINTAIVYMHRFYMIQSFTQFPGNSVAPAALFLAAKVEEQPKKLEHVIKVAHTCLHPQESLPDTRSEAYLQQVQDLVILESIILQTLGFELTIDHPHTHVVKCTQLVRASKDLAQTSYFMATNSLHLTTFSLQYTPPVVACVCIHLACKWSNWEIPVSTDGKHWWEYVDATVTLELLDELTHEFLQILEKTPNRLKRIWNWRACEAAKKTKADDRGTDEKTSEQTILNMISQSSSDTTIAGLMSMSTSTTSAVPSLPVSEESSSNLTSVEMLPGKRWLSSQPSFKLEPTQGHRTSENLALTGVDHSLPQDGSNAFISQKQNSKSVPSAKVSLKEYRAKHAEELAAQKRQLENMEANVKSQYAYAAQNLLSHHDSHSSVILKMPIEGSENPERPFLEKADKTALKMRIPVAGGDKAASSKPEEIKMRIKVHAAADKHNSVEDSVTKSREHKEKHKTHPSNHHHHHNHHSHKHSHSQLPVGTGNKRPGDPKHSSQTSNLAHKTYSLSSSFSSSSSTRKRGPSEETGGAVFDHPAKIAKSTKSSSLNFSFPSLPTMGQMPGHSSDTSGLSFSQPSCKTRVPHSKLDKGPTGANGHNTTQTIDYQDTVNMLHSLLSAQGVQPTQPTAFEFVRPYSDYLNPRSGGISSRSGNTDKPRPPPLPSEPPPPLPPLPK
Experimental: (§2) The cytosolic extracts were prepared by resuspending the cells in 80 μl of Buffer A (10 mM KCl, 10 mM MgCl2, 10 mM HEPES, 1 mM EDTA, 1 mM DTT, 0.1% PMSF and EDTA-free complete protease inhibitor cocktail (Roche)) with 0.5% NP-40 for 10 minutes on ice. The nuclei were spun down at 5,000 g for 5 minutes and the supernatant was saved as the cytosolic extract (CE). The nuclei were washed once with 200 μl of Buffer A with 0.5% NP-40 and re-pelleted. The nuclei were resuspended in 80 μl of Buffer B (450 mM NaCl, 1.5 mM MgCl2, 20 mM HEPES, 0.5 mM EDTA, 1 mM DTT, 0.1% PMSF and EDTA-free complete protease inhibitor cocktail (Roche)) and incubated on ice for 10 minutes. The lysates were clarified by centrifugation at 20,000 g for 10 minutes. The supernatant was saved as the nuclear extract (NE). Western blotting was performed with one fifth of the samples and the fraction of Cdk9 and cyclin T1 in the cytosolic and nuclear extracts was determined by imaging the chemiluminescent signal using a cooled CCD camera (UVP). The signal was quantitated using LabWorks 4.0 software and the data fit to a logistic dose response curve using TableCurve (Jandel Scientific) to determine the IC50 for loss of the large, low salt extractable form of P-TEFb.

HIV-1p256 [4] = experiment: Long-term HIV-1 replication in PBLs (RT activity in supernatants); type: cell-based; settings: average of days 4, 8, 12, 16, read-out: average IC50 for inhibition of viral replication in PBLs
Experimental: (§3) Peripheral blood mononuclear cells (PBMCs) were isolated as previously described. Briefly, PBMCs were separated by centrifugation in lymphocyte separation medium (ICN Biomedicals, Solon, Ohio). The separated PBMCs were placed on gelatin and fibronectin-coated flasks in order to separate monocytes from mononuclear cells. […] PBLs were treated with 5 μg/ml of phytohaemagglutinin (PHA) for 72 hours prior to HIV infection and drug treatment. […] During long term studies in primary cells, supernatants were collected at 4, 8, 12 and 16 days post-infection, frozen at -80°C until analyzed and media was refreshed. […] Reverse transcriptase (RT) assays were performed on supernatants from HIV-1p256 infected cells as previously described. […] The mixture was incubated at 37°C for 3.5 hours and then blotted onto DE81 paper. The DE81 paper was washed 4 times with 3× SSPE and the amount of radioactivity that was incorporated into negative strand DNA was quantified with an InstantImager (Packard Instruments).

HeLa37 cells = experiment: Cell viability (ATPlite) in HeLa37 cells; type: cell-based; settings: performed in parallel to the 40 hour infectivity assay
Experimental: The impact of the P-TEFb inhibitors on cell viability was measured by ATPlite (Perkin Elmer). These cytotoxicity studies were performed as recommended by manufacturer utilizing a substrate solution that emits light in a manner proportional to the ATP present in each sample. Cells were plated in a 48-well format. Cells were treated with serial dilutions of the P-TEFb inhibitors and maintained for the indicated period of time. Mammalian cell lysis buffer was added to lyse the cells, followed by addition of the substrate solution. The amount of light produced in each well was measured in a TopCountR Microplate Scintillation and Luminescence Counter (Packard Instruments). Cytotoxicity experiments in HeLa37 cells were repeated at least three times with triplicates of each drug concentration.

[5] = tested on: monocyte derived macrophages (MDMs); experiment: Cell viability (ATPLite) in MDMs; type: cell-based, human; settings: pooled data of independent donors; days 4, 8, 12, 16
Experimental: as §1, with “PHA-treated PBLs were plated at a density of 1 × 10^6 per well in 48-well trays and maintained in RPMI 1640 with 10% FCS, 1% Penicillin/Streptomycin and 10 units/ml of recombinant IL-2. Viral infection was performed in MDMs and PBLs by adding 10,000 RT units of HIV-1p256 stock per 1 × 10^6 cells.” left out
The impact of the P-TEFb inhibitors on cell viability was measured by ATPlite (Perkin Elmer). […] The amount of light produced in each well was measured in a TopCountR Microplate Scintillation and Luminescence Counter (Packard Instruments). […]

HIV-1p256 [6] = experiment: Long-term HIV-1 replication in MDMs (RT activity in supernatants); type: cell-based; settings: Human immunodeficiency virus 1, pooled data of independent donors; days 4, 8, 12, 16; read-out: average IC50 for inhibition of HIV-1 replication in MDMs
Experimental: as §3

large form of P-TEFb [7] = target: T1, large form of P-TEFb; experiment: Differential salt extraction, loss of large form of P-TEFb in HeLa cells; type: cell-based; settings: for IC50: 1 hour treatment
Experimental: as §2

large form of P-TEFb [8] = target: T1, large form of P-TEFb; experiment: Glycerol gradient analysis of large and free forms of P-TEFb in DRB-treated HeLa cells; type: cell-based
Experimental: HeLa cells were grown in 100 ml of DMEM with 10% FCS to a density of 4 × 10^5 cells/ml in spinner flasks. The cells were treated for 1 hour with no P-TEFb inhibitor or serial dilutions of DRB ranging from 0.1 to 10 μM. Cell lysates were prepared in Buffer A (10 mM KCl, 10 mM MgCl2, 10 mM HEPES, 1 mM EDTA, 1 mM DTT, 0.1% PMSF and EDTA-free complete protease inhibitor cocktail (Roche)) containing 150 mM NaCl and 0.5% NP-40. The lysates were clarified by centrifugation at 20,000 g for 10 minutes at 4°C. The supernatant was layered on top of a 5–45% glycerol gradient containing 150 mM NaCl. Gradients were spun at 190,000 g for 16 hours using a SW-55Ti rotor. The fractions were analyzed for the presence of P-TEFb complexes by immunoblotting with anti-cyclin T1 and anti-Cdk9 antibodies (Santa Cruz). Following incubation with the appropriate HRP-conjugated secondary antibodies, the blots were developed using SuperSignal DuraWest (Pierce). The western blots were imaged using a cooled CCD camera (UVP) and the amount of P-TEFb in the large and free form was quantitated using LabWorks 4.0 software.

[9] = target: recombinant P-TEFb (Cdk9/cyclin T1) (Homo sapiens, UniProt P50750); set-up: method as in earlier work; settings: preparation of DRB tested earlier; Peng et al (1998) Genes and Dev. 12: 755–762; read-out: IC50 of kinase inhibition; cited from earlier work
Chain of recombinant P-TEFb (Cdk9/cyclin T1) (P50750 whole entry): as the sequence (P50750 whole entry) above
Chain of recombinant P-TEFb (Cdk9/cyclin T1) (O60563 whole entry partner): as the sequence (O60563 whole entry, further chain) above

HIV-1 = tested on: HIV-1; set-up: method as in PMID 11461999; settings: extensive 6 month study; cited from earlier work
[10] = Phase I trials, highest tested doses; cited from earlier work

In the case of `CN1CC[C@H](c2c(O)cc(O)c3c(=O)cc(-c4ccccc4Cl)oc23)[C@H](O)C1` [Flavopiridol], the “LD50 in PBLs” value ([1]; donor #1) is reported as 143 nM, the “LD50 in PBLs” value ([1]; donor #2) is reported as 81 nM and the “LD50 in PBLs” value ([1]; donor #3) is reported as 123 nM. For the same compound, the IC50 (HIV-1p256 [2]) was 9.5 nM, the “effect on amount of the large form of P-TEFb” value (large form of P-TEFb [3]) was “gradual reduction in the amount of the large form” and the IC50 (HIV-1p256 [4]; Human immunodeficiency virus 1, donor #1) was 35 nM. For the same compound, the IC50 (HIV-1p256 [4]; Human immunodeficiency virus 1, donor #2) was 40 nM, the IC50 (HIV-1p256 [4]; Human immunodeficiency virus 1, donor #3) was 61 nM and the “Hela37 cell cytotoxicity (LD50)” value (HeLa37 cells) was 0.225 µM. For the same compound, the “LD50 in MDMs” value [5] was 99 nM and the IC50 (HIV-1p256 [6]) was 61 nM.
With `OC[C@H]1O[C@@H](n2cnc3cc(Cl)c(Cl)cc32)[C@H](O)[C@@H]1O` [DRB, 5,6-dichloro-1-beta-D-ribofuranosylbenzimidazole] the “P-TEFb subunits in cytosolic extracts prepared with low salt lysis buffer” value (large form of P-TEFb [7]; HeLa cells, 100 μM DRB, 1 hour, untreated approx. 50% in cytosolic extract) was “not detected”, the IC50 (large form of P-TEFb [7]; read-out: IC50 for the release of free form of P-TEFb from the large form of the complex, HeLa37 cells, low salt extraction) was roughly 4500 nM and the IC50 (large form of P-TEFb [7]; read-out: IC50 of loss of large form from HeLa cells: Cdk9, Cdk9 western blot) was 4200 ± 1600 nM. The IC50 (large form of P-TEFb [7]; read-out: IC50 of loss of large form from HeLa cells: Cyclin T1, cyclin T1 western blot) was 5000 ± 3000 nM, the IC50 (HIV-1p256 [2]) was 2600 nM and the “effect on amount of the large form of P-TEFb” value (large form of P-TEFb [3]) was “gradual reduction of the large form”. The “P-TEFb subunits left in the large form of the complex” value (large form of P-TEFb [8]; 10 μM DRB, 1 hour, without DRB approx. 60% of Cdk9 and 70% of cyclin T1) was “about 20%”, the IC50 (large form of P-TEFb [8]; HeLa cells, 1 hour treatment, Cdk9 and cyclin T1 immunoblot of glycerol gradient fractions, read-out: concentration causing a 50% reduction in large form within the cell) was roughly 3000 nM and the “Hela37 cell cytotoxicity (LD50)” value (HeLa37 cells) was 20 µM. For the same compound, the IC50 [9] was 900 nM.
In the case of `CC[C@H](CO)Nc1nc(NCc2ccccc2)c2ncn(C(C)C)c2n1` [roscovitine], the “generation of a resistant HIV-1 strain” value (HIV-1) is listed as “unsuccessful”.
For `CC[C@H](CO)Nc1nc(NCc2ccccc2)c2ncn(C(C)C)c2n1` [Seliciclib], the side effects caused [10] is listed as “fatigue and elevated creatinine”.
